Toxic doses and inconclusive results are not listed. The calls were made as follows: active = survival T/C of 150% or more; inactive = T/C below 125% in these data.
Test system: CD2F1 mice, L1210 leukemia ip, survival T/C
Test: NCI In Vivo Anticancer Drug Screen. Data for tumor model L1210 Leukemia (intraperitoneal) in CD2F1 (CDF1) mice
Details: higher = longer survival
How it was run: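 Mice carrying a transplanted tumor received test compound or vehicle alone. The value is the measurement in the treated group divided by that in the vehicle-treated control group.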

[1] = endpoint: mean survival time, dose: 100.0 mg/kg/injection, schedule: Q04DX003 (ip), vehicle: saline
[2] = endpoint: mean survival time, dose: 100.0 mg/kg/injection, schedule: Q01DX009 (ip), vehicle: saline with Tween-80
[3] = endpoint: mean survival time, dose: 100.0 mg/kg/injection, schedule: Q04DX003 (ip), vehicle: saline with Tween-80
[4] = endpoint: mean survival time, dose: 200.0 mg/kg/injection, schedule: Q01DX009 (ip), vehicle: saline with Tween-80
[5] = endpoint: mean survival time, dose: 200.0 mg/kg/injection, schedule: Q04DX003 (ip), vehicle: saline with Tween-80
[6] = endpoint: mean survival time, dose: 400.0 mg/kg/injection, schedule: Q01DX009 (ip), vehicle: saline with Tween-80
[7] = endpoint: mean survival time, dose: 400.0 mg/kg/injection, schedule: Q04DX003 (ip), vehicle: saline with Tween-80
[8] = endpoint: median survival time, dose: 25.0 mg/kg/injection, schedule: Q01DX009 (ip), vehicle: Klucel (hydroxypropylcellulose) (HPC)
[9] = endpoint: median survival time, dose: 50.0 mg/kg/injection, schedule: Q01DX009 (ip), vehicle: Klucel (hydroxypropylcellulose) (HPC)
[10] = endpoint: median survival time, dose: 100.0 mg/kg/injection, schedule: Q01DX009 (ip), vehicle: Klucel (hydroxypropylcellulose) (HPC)
[11] = endpoint: median survival time, dose: 200.0 mg/kg/injection, schedule: Q01DX009 (ip), vehicle: Klucel (hydroxypropylcellulose) (HPC)
[12] = endpoint: mean survival time, dose: 100.0 mg/kg/injection, schedule: Q01DX009 (ip), vehicle: other
[13] = endpoint: mean survival time, dose: 200.0 mg/kg/injection, schedule: Q01DX009 (ip), vehicle: other
[14] = endpoint: mean survival time, dose: 400.0 mg/kg/injection, schedule: Q01DX009 (ip), vehicle: other

Measured: T/C

CCCCS(=O)(=O)OCCCCOS(=O)(=O)CCCC
inactive: [1] 96 % of control | endpoint: mean survival time, dose: 200.0 mg/kg/injection, schedule: Q04DX003 (ip), vehicle: saline 95 % of control | endpoint: mean survival time, dose: 400.0 mg/kg/injection, schedule: Q04DX003 (ip), vehicle: saline 101 % of control

O=C1CCC(=O)N1Br
inactive: [2] 101 % of control | [3] 100 % of control | [4] 96 % of control | [5] 95 % of control | [6] 101 % of control | [7] 91 % of control

O=c1nc(-c2ccco2)sc(=O)[nH]1
inactive: [8] 100 % of control | [9] 106 % of control | [10] 96 % of control | [11] 102 % of control

COc1cc2c(c(Oc3ccc(C)cc3)c1)CN(C)CC2
inactive: endpoint: mean survival time, dose: 25.0 mg/kg/injection, schedule: Q04DX003 (ip), vehicle: saline 105 % of control | endpoint: mean survival time, dose: 50.0 mg/kg/injection, schedule: Q04DX003 (ip), vehicle: saline 100 % of control | [1] 105 % of control

CCOC(=O)c1cc2cc([N+](=O)[O-])ccc2[nH]1
inactive: [3] 92 % of control | [5] 87 % of control | [7] 91 % of control

Nc1nc(N)c(N)c(NC(c2ccccc2)c2ccccc2)n1
inactive: endpoint: mean survival time, dose: 75.0 mg/kg/injection, schedule: Q01DX001 (ip), vehicle: other 100 % of control

O=P(O)(CO)CO
inactive: endpoint: mean survival time, dose: 50.0 mg/kg/injection, schedule: Q01DX009 (ip), vehicle: saline 95 % of control | endpoint: mean survival time, dose: 100.0 mg/kg/injection, schedule: Q01DX009 (ip), vehicle: saline 101 % of control | endpoint: mean survival time, dose: 200.0 mg/kg/injection, schedule: Q01DX009 (ip), vehicle: saline 95 % of control

Cc1cc(=O)cc(CC(=O)C(=O)O)o1
inactive: endpoint: mean survival time, dose: 100.0 mg/kg/injection, schedule: Q01DX009 (ip), vehicle: saline sonified 101 % of control | [3] 97 % of control | [5] 95 % of control | [7] 97 % of control

CC(C)(C)OC(=O)NC(CSSCC(NC(=O)OC(C)(C)C)C(=O)O)C(=O)O (centres undefined)
inactive: [3] 92 % of control | [5] 92 % of control | [7] 90 % of control

O=C1OCCO1
inactive: [2] 92 % of control | [4] 95 % of control | [6] 97 % of control

O=C(Cc1ccccn1)c1ccccc1
inactive: [12] 101 % of control | [13] 96 % of control | [14] 96 % of control

CC(=O)OC1CCC2(C)C(=CCC3C2CCC2(C)C(C(C)CCCC(C)C)CCC32)C1 (centres undefined)
inactive: endpoint: mean survival time, dose: 50.0 mg/kg/injection, schedule: Q01DX009 (ip), vehicle: Klucel (hydroxypropylcellulose) (HPC) 96 % of control | endpoint: mean survival time, dose: 100.0 mg/kg/injection, schedule: Q01DX009 (ip), vehicle: Klucel (hydroxypropylcellulose) (HPC) 93 % of control | endpoint: mean survival time, dose: 200.0 mg/kg/injection, schedule: Q01DX009 (ip), vehicle: Klucel (hydroxypropylcellulose) (HPC) 86 % of control

Cc1nc(C)c2c(n1)Oc1ccc3ccccc3c1C2
inactive: endpoint: mean survival time, dose: 100.0 mg/kg/injection, schedule: Q01DX001 (ip), vehicle: saline 97 % of control | endpoint: mean survival time, dose: 200.0 mg/kg/injection, schedule: Q01DX001 (ip), vehicle: saline 97 % of control | endpoint: mean survival time, dose: 400.0 mg/kg/injection, schedule: Q01DX001 (ip), vehicle: saline 97 % of control

CC1=C/C(O)CC(=O)Cc2nc(co2)C(=O)N2CCC=C2C(=O)OC(C(C)C)C(C)/C=C\C(=O)NC/C=C\1 (centres undefined)
inactive: endpoint: mean survival time, dose: 1.0 micrograms/kg/injection, schedule: Q01DX009 (ip), vehicle: Klucel (hydroxypropylcellulose) (HPC) 98 % of control | endpoint: mean survival time, dose: 2.0 micrograms/kg/injection, schedule: Q01DX009 (ip), vehicle: Klucel (hydroxypropylcellulose) (HPC) 101 % of control | endpoint: mean survival time, dose: 4.0 micrograms/kg/injection, schedule: Q01DX009 (ip), vehicle: Klucel (hydroxypropylcellulose) (HPC) 97 % of control | endpoint: mean survival time, dose: 8.0 micrograms/kg/injection, schedule: Q01DX009 (ip), vehicle: Klucel (hydroxypropylcellulose) (HPC) 92 % of control | [8] 98 % of control | [9] 106 % of control | [10] 105 % of control | [11] 104 % of control

O=CCCNP(=O)(OCc1ccccc1)N(CCCl)CCCl (centres undefined)
inactive: endpoint: mean survival time, dose: 13.13 mg/kg/injection, schedule: Q01DX001 (ip), vehicle: DMSO 103 % of control | endpoint: mean survival time, dose: 26.25 mg/kg/injection, schedule: Q01DX001 (ip), vehicle: DMSO 98 % of control | endpoint: mean survival time, dose: 52.5 mg/kg/injection, schedule: Q01DX001 (ip), vehicle: DMSO 103 % of control | endpoint: mean survival time, dose: 105.0 mg/kg/injection, schedule: Q01DX001 (ip), vehicle: DMSO 104 % of control | endpoint: mean survival time, dose: 210.0 mg/kg/injection, schedule: Q01DX001 (ip), vehicle: DMSO 101 % of control | endpoint: mean survival time, dose: 420.0 mg/kg/injection, schedule: Q01DX001 (ip), vehicle: DMSO 101 % of control | endpoint: mean survival time, dose: 840.0 mg/kg/injection, schedule: Q01DX001 (ip), vehicle: DMSO 101 % of control

COc1cc(Cc2nc(Cl)cc(Cl)n2)cc(OC)c1OC
inactive: [2] 105 % of control | [3] 95 % of control | [4] 97 % of control | [5] 93 % of control | [6] 103 % of control | [7] 97 % of control

O=C(O)CCC1(CCC(=O)O)OCCO1.[Ag]
inactive: endpoint: mean survival time, dose: 9.5 mg/kg/injection, schedule: Q01DX009 (ip), vehicle: saline sonified 92 % of control | endpoint: mean survival time, dose: 18.75 mg/kg/injection, schedule: Q01DX009 (ip), vehicle: saline with Tween-80 92 % of control | endpoint: mean survival time, dose: 19.0 mg/kg/injection, schedule: Q01DX009 (ip), vehicle: saline sonified 95 % of control | endpoint: mean survival time, dose: 37.5 mg/kg/injection, schedule: Q01DX009 (ip), vehicle: saline with Tween-80 92 % of control | endpoint: mean survival time, dose: 38.0 mg/kg/injection, schedule: Q01DX009 (ip), vehicle: saline sonified 95 % of control

O=C(C[n+]1cccc2ccccc21)c1ccc([N+](=O)[O-])cc1
inactive: endpoint: mean survival time, dose: 25.0 mg/kg/injection, schedule: Q04DX002 (ip), vehicle: saline with Tween-80 102 % of control | endpoint: mean survival time, dose: 50.0 mg/kg/injection, schedule: Q04DX002 (ip), vehicle: saline with Tween-80 98 % of control | endpoint: mean survival time, dose: 100.0 mg/kg/injection, schedule: Q04DX002 (ip), vehicle: saline with Tween-80 102 % of control

O=Cc1ccc(C=O)cc1
inactive: [2] 104 % of control | [4] 98 % of control | [6] 96 % of control

O=C(CCCCCCC(=O)ON1C(=O)CCC1=O)ON1C(=O)CCC1=O
inactive: endpoint: median survival time, dose: 25.0 mg/kg/injection, schedule: Q01DX009 (ip), vehicle: saline with Tween-80 102 % of control | endpoint: median survival time, dose: 50.0 mg/kg/injection, schedule: Q01DX009 (ip), vehicle: saline with Tween-80 102 % of control | endpoint: median survival time, dose: 100.0 mg/kg/injection, schedule: Q01DX009 (ip), vehicle: saline with Tween-80 103 % of control | endpoint: median survival time, dose: 200.0 mg/kg/injection, schedule: Q01DX009 (ip), vehicle: saline with Tween-80 102 % of control

O=C(O)CCCc1ccc(Oc2ccccc2)cc1
inactive: [12] 94 % of control | endpoint: mean survival time, dose: 100.0 mg/kg/injection, schedule: Q04DX003 (ip), vehicle: other 106 % of control | [13] 95 % of control | endpoint: mean survival time, dose: 200.0 mg/kg/injection, schedule: Q04DX003 (ip), vehicle: other 93 % of control | [14] 96 % of control | endpoint: mean survival time, dose: 400.0 mg/kg/injection, schedule: Q04DX003 (ip), vehicle: other 95 % of control

— PubChem BioAssay AID256 (DTP/NCI, 2004)
